Results reported in patent US20040142819A1, “Compositions and methods for synergistic weed control” (priority 2003, published 2004).

Columns and labels:
[1] = tested on: Sorghum halepense (Johnsongrass); assay: Greenhouse post-emergence weed control of seedling johnsongrass, visual % control, Colby expected response
Method: In this evaluation, seedling johnsongrass was grown in 9-cm diameter styrofoam cups in a soil medium of a 1:1 mixture of top-soil from a Freestone fine sandy loam (fine-loamy, siliceous, thermic Aquic Paleudalf) and masonry sand. The temperature in the greenhouse was maintained at 31 ″5° C. for several weeks until the plants were approximately 5-inch (13 cm) leaf seedlings. Said plants were then sprayed with an aqueous solution of the test compounds at the rates indicated in Tables Ia and Ib as measured in lbs of herbicide per acre. Each treatment was replicated 4 times and the average control % (on a visual basis) is shown in Table Ia for 10 days after treatment and Table Ib for 20 days after treatment.
The methods described by Colby in “Calculating Synergistic and Antagonistic Responses of Herbicide Combinations,” 15 Weeds 20-22 (1967), were used to calculate interactions of herbicide tank mixtures. The expected response for tank mixtures was calculated by taking the product of the recorded values from the herbicides applied alone and dividing by 100.

[2] = tested on: SORHAZ (johnsongrass, approximate height 3 feet); assay: Field plot weed control, visual % control, rhizome johnsongrass; type: in vivo
Method: (§1) In this evaluation, seedling weeds of rhizome johnsongrass and white clover were grown in a field plot until they reached a height of 3 feet (0.9 m) and 3 inches (8 cm) respectively. The plants were then sprayed with an aqueous solution or emulsification of the test compounds at various rates as indicated in Table II. The control % (on a visual basis) is shown in Table II for 7 and 16 days after treatment.
(§2) Sethoxydim is formulated as a 1.5 lb ai/g (0.68 kg ai/g) emulsification.
(§3) Imazapyr is formulated as a 4.0 lb ai/g (1.8 kg ai/g) aqueous solution.
SORHAZ is johnsongrass with an approximate height of 3 feet (0.9 m).

[3] = tested on: TRFRE (white clover, approximate height 3 inches); assay: Field plot weed control, visual % control, white clover; type: in vivo
Method: as §1, §2, §3
TRFRE is white clover with an approximate height of 3 inches (8 cm).

[4] = 10 Days After Treatment, Sethoxydim 0 lb/A, imidazolinone 0.008 lb/A (0.009 kg/ha)
[5] = 10 Days After Treatment, Sethoxydim 0 lb/A, imidazolinone 0.016 lb/A (0.018 kg/ha)
[6] = 10 Days After Treatment, Sethoxydim 0 lb/A, imidazolinone 0.032 lb/A (0.036 kg/ha)
[7] = 20 Days After Treatment, Sethoxydim 0 lb/A, imidazolinone 0.008 lb/A (0.009 kg/ha)
[8] = 20 Days After Treatment, Sethoxydim 0 lb/A, imidazolinone 0.016 lb/A (0.018 kg/ha)
[9] = 20 Days After Treatment, Sethoxydim 0 lb/A, imidazolinone 0.032 lb/A (0.036 kg/ha)
[10] = Treatment 3: graminicide 0, imidazolinone 0.008 lb/A (0.009 kg/ha)
[11] = Treatment 2: graminicide 0.20 lb/A (0.22 kg/ha), imidazolinone 0

CC(C)C1(C)N=C(c2nc3ccccc3cc2C(=O)O)NC1=O (stereo not shown) [imazaquin, 2-(4,5-dihydro-4-methyl-4-(1-methyl-ethyl)-5-oxo-1H-imidazol-2-yl]-3-quinolinecarboxylic acid]
Actual Control (%) [1, 4]: 0% | Actual Control (%) [1, 5]: 0% | Actual Control (%) [1, 6]: 0% | Actual Control (%) ([1]; 10 Days After Treatment, Sethoxydim 0 lb/A, imidazolinone 0.063 lb/A (0.070 kg/ha)): 0% | Actual Control (%) [1, 7]: 0% | Actual Control (%) [1, 8]: 2.5% | Actual Control (%) [1, 9]: 3.8% | Actual Control (%) ([1]; 20 Days After Treatment, Sethoxydim 0 lb/A, imidazolinone 0.063 lb/A (0.070 kg/ha)): 5%

CC(C)C1(C)N=C(c2ncccc2C(=O)O)NC1=O (stereo not shown) [imazapyr, (″)-2-[4,5-dihydro-4-methyl-4-(1-methylethyl)-5-oxo-1H-imidazol-2-yl]-3-pyridinecar-boxylic acid]
SORHAZ 7 DAT Control (%) [2, 10]: 0% | SORHAZ 16 DAT Control (%) [2, 10]: 0% | TRFRE 7 DAT Control (%) [3, 10]: 0% | TRFRE 16 DAT Control (%) [3, 10]: 0%

COCc1cnc(C2=NC(C)(C(C)C)C(=O)N2)c(C(=O)O)c1 (stereo not shown) [imazamox, 2-[4,5-dihydro-4-methyl-4-(1-methylethyl)-5-oxo-1H-imidazol-2-yl]-5(methoxymethyl)-3-pyridinecarboxylic acid]
Actual Control (%) ([1]; 10 Days After Treatment, Sethoxydim 0 lb/A, imidazolinone 0.004 lb/A (0.004 kg/ha)): 12.5% | Actual Control (%) [1, 4]: 12.5% | Actual Control (%) [1, 5]: 10% | Actual Control (%) [1, 6]: 10% | Actual Control (%) ([1]; 20 Days After Treatment, Sethoxydim 0 lb/A, imidazolinone 0.004 lb/A (0.004 kg/ha)): 30% | Actual Control (%) [1, 7]: 40% | Actual Control (%) [1, 8]: 40% | Actual Control (%) [1, 9]: 50%

CCCC(=NOCC)C1=C(O)CC(CC(C)SCC)CC1=O (stereo not shown) [Sethoxydim, 2-[1-(ethoxyimino)butyl]-5-[2-(ethylthio)propyl]-3-hydroxy-2-cyclohexen-1-one]
SORHAZ 7 DAT Control (%) [2, 11]: 26.7% | SORHAZ 16 DAT Control (%) [2, 11]: 38.3% | TRFRE 7 DAT Control (%) [3, 11]: 0% | TRFRE 16 DAT Control (%) [3, 11]: 0% | Actual Control (%) ([1]; 10 Days After Treatment, Sethoxydim 0.1 lb/A (0.1 kg/ha), no imidazolinone): 20% | Actual Control (%) ([1]; 10 Days After Treatment, Sethoxydim 0.2 lb/A (0.2 kg/ha), no imidazolinone): 87.5% | Actual Control (%) ([1]; 20 Days After Treatment, Sethoxydim 0.1 lb/A (0.1 kg/ha), no imidazolinone): 30% | Actual Control (%) ([1]; 20 Days After Treatment, Sethoxydim 0.2 lb/A (0.2 kg/ha), no imidazolinone): 95%
